What was measured:
Type in all cases: cell-based
M1 muscarinic receptor = target: T1, M1 muscarinic receptor (Homo sapiens, UniProt P11229); test: Functional mobilization of intracellular calcium (FLIPR) in CHO cells expressing M1; details: for EC50: CHO cells expressing M1, FLIPR calcium; for Emax: CHO, 100% = maximum response obtained with the Carbachol control, read-out: M1 Efficacy
T1 construct: expressed in transfected cells; host or cells: CHO (M1-CHO)
T1 sequence (P11229 1-460): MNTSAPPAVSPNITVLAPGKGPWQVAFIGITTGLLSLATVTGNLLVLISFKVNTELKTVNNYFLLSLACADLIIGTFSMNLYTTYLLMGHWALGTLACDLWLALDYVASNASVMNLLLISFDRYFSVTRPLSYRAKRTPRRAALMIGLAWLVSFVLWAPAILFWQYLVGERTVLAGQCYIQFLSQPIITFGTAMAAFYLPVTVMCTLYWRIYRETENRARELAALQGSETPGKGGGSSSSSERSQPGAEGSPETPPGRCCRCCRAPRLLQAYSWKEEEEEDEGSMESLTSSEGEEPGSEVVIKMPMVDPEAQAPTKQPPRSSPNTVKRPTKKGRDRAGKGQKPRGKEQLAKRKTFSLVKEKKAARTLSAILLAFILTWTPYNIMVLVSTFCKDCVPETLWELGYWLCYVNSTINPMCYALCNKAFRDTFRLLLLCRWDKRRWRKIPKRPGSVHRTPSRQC
How it was run: (§1)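 Calcium flux is read on FLIPR over 60 sec at 488/540 nm in muscarinic-receptor CHO lines. Antagonist mode adds carbachol at EC80 after 15 min compound preincubation or with simultaneous co-application. Agonist mode adds compound alone. Cells carry Fluo-3 or Calcium 3 dye in probenecid-containing pH 7.4 buffer, 0.5% DMSO final.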

M2 muscarinic receptor = target: T2, M2 muscarinic receptor (Homo sapiens, UniProt P08172); test: Functional mobilization of intracellular calcium (FLIPR) in CHO cells expressing M2; details: for EC50: CHO cells expressing M2, FLIPR calcium; for Emax: CHO, 100% = maximum response obtained with the Carbachol control, read-out: M2 Efficacy
T2 construct: expressed in transfected cells; host or cells: CHO (M2-CHO)
T2 sequence (P08172 1-466): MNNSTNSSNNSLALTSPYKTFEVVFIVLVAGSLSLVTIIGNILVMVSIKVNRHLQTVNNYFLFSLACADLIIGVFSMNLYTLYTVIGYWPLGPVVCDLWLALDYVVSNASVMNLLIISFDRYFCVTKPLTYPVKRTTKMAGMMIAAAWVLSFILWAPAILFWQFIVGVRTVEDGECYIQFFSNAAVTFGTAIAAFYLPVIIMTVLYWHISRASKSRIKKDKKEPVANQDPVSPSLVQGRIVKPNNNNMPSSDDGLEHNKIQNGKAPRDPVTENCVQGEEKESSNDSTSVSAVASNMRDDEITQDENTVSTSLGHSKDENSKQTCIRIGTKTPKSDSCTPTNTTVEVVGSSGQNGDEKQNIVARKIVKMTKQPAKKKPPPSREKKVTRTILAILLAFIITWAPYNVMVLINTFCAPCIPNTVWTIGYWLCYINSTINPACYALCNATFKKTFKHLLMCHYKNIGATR
How it was run: as §1

M3 muscarinic receptor = target: T3, M3 muscarinic receptor (Homo sapiens, UniProt P20309); test: Functional mobilization of intracellular calcium (FLIPR) in CHO cells expressing M3; details: for EC50: CHO cells expressing M3, FLIPR calcium; for Emax: CHO, 100% = maximum response obtained with the Carbachol control, read-out: M3 Efficacy
T3 construct: expressed in transfected cells; host or cells: CHO (M3-CHO)
T3 sequence (P20309 whole entry): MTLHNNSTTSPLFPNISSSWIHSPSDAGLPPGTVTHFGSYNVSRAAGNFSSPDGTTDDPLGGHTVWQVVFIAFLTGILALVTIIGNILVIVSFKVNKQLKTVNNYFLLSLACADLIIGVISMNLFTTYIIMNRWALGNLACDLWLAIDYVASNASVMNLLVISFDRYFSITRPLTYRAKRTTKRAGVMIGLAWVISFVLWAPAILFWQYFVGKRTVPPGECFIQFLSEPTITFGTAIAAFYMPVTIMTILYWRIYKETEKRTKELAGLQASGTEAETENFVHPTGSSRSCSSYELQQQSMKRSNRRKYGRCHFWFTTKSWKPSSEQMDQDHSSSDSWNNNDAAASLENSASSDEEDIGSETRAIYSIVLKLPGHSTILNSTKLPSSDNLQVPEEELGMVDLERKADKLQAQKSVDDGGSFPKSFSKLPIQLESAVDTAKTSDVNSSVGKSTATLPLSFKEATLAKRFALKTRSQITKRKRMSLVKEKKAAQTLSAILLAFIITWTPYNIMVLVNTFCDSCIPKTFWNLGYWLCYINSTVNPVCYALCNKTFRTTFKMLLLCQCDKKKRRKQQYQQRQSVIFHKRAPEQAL
How it was run: as §1

M4 muscarinic receptor = target: T4, M4 muscarinic receptor (Homo sapiens, UniProt P08173); test: Functional mobilization of intracellular calcium (FLIPR) in CHO cells expressing M4; details: for EC50: CHO cells expressing M4, FLIPR calcium; for Emax: CHO, 100% = maximum response obtained with the Carbachol control, read-out: M4 Efficacy
T4 construct: expressed in transfected cells; host or cells: CHO (M4-CHO)
T4 sequence (P08173 1-479): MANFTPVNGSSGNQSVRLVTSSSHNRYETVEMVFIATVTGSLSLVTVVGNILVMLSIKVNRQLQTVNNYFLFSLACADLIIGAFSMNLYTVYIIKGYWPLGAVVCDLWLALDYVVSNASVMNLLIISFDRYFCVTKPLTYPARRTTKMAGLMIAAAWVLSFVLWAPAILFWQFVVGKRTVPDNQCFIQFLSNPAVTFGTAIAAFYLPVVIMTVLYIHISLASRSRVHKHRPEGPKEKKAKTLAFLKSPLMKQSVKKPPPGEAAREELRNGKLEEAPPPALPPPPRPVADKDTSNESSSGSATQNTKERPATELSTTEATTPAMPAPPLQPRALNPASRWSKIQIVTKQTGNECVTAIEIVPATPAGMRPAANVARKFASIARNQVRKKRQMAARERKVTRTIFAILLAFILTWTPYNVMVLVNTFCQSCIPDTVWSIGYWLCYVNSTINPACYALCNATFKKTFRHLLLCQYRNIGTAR
How it was run: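 Recombinant CHO cells loaded with Fluo-3 AM or Calcium 3 dye in pH 7.4 buffer containing 1 mM probenecid, with 0.5% final DMSO. For agonism, compound is added directly. For inhibition, it is preincubated 15 min, or co-applied, before carbachol at EC80. FLIPR fluorescence (ex 488, em 540 nm) is recorded for 60 s.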

SMILES	EC50 (M1 muscarinic receptor)	Emax (M1 muscarinic receptor)	EC50 (M2 muscarinic receptor)	Emax (M2 muscarinic receptor)	EC50 (M3 muscarinic receptor)	Emax (M3 muscarinic receptor)	EC50 (M4 muscarinic receptor)	Emax (M4 muscarinic receptor)
CC(C)(C)CCN1CCC2(CC[C@H](NC(=O)CC3CCOCC3)c3ccc(F)cc32)CC1 [compound 145]	< 2 µM	25 to 100%	< 2 µM	< 25%	> 5 µM	< 25%	< 2 µM	25 to 100%
C[C@@H](C(=O)N[C@@H]1CCC2(CCN(CCC(C)(C)C)CC2)c2ccccc21)N1CCCC1=O [compound 146]	> 5 µM	25 to 100%	> 5 µM	< 25%	> 5 µM	< 25%	< 2 µM	25 to 100%
COCCC(=O)N[C@H]1CCC2(CCN(CCC(C)(C)C)CC2)c2ccccc21 [compound 147]	< 2 µM	25 to 100%	< 2 µM	25 to 100%	> 5 µM	< 25%	< 2 µM	25 to 100%
CC(C)CCN1CCC2(CC[C@H](NC(=O)N(C)C)c3ccccc32)CC1 [compound 148]	> 5 µM	< 25%	> 5 µM	< 25%	> 5 µM	< 25%	2 to 5 µM	25 to 100%
CC(=O)N1CCCC[C@@H]1C(=O)N[C@@H]1CCC2(CCN(CCC(C)(C)C)CC2)c2cc(F)ccc21 [compound 149]	2 to 5 µM	25 to 100%	2 to 5 µM	25 to 100%	> 5 µM	< 25%	< 2 µM	25 to 100%
CC(=O)N[C@H]1CCC2(CCN(CC=C(C)C)CC2)c2ccccc21 [compound 150]	> 5 µM	25 to 100%	> 5 µM	< 25%	> 5 µM	< 25%	2 to 5 µM	25 to 100%
Cc1cc(C(=O)N[C@H]2CCC3(CCN(CCC(C)(C)C)CC3)c3ccccc32)nn1C [compound 151]	< 2 µM	25 to 100%	> 5 µM	< 25%	> 5 µM	< 25%	< 2 µM	25 to 100%
CC(C)(C)CCN1CCC2(CC[C@@H](NC(=O)CC3CCOCC3)c3ccccc32)CC1 [compound 152]	> 5 µM	< 25%	> 5 µM	< 25%	> 5 µM	< 25%	< 2 µM	25 to 100%
CC(=O)N(C(C)C)[C@H]1CCC2(CCN(CCC(C)(C)C)CC2)c2ccccc21 [compound 154]	< 2 µM	25 to 100%	> 5 µM	< 25%	> 5 µM	< 25%	< 2 µM	25 to 100%
CCC(=O)N[C@H]1CCC2(CCN(CCC(C)(C)C)CC2)c2ccccc21 [compound 156]	< 2 µM	25 to 100%	< 2 µM	25 to 100%	> 5 µM	< 25%	< 2 µM	25 to 100%
C[C@H](C(=O)N[C@@H]1CCC2(CCN(CCC(C)(C)C)CC2)c2ccccc21)N1CCCC1=O [compound 157]	2 to 5 µM	25 to 100%	< 2 µM	< 25%	> 5 µM	< 25%	< 2 µM	25 to 100%
